Data taken from US20080051429A1, “USE OF 4-AMINO-PIPERIDINES FOR TREATING SLEEP DISORDERS” (priority 2006, published 2008).
Where two headings read alike, the source gives them in different places. Each block holds one compound with its values, some of them ahead of it.

Columns and labels:
Type in all cases: cell-based
5-HT2A receptor = target: T1, 5-HT2A receptor (Homo sapiens, UniProt P28223); test: R-SAT functional receptor assay; settings: for EC50: agonist
T1 construct: expressed in transfected cells; host or cells: NIH3T3 cells, pSI expression vector

m4 = target: T2, m4 (Homo sapiens, UniProt P08173); test: R-SAT broad profiling; settings: read-out: pEC50/pIC50 (converted)
T2 construct: expressed in transfected cells; host or cells: NIH3T3
T2 sequence (P08173 1-479): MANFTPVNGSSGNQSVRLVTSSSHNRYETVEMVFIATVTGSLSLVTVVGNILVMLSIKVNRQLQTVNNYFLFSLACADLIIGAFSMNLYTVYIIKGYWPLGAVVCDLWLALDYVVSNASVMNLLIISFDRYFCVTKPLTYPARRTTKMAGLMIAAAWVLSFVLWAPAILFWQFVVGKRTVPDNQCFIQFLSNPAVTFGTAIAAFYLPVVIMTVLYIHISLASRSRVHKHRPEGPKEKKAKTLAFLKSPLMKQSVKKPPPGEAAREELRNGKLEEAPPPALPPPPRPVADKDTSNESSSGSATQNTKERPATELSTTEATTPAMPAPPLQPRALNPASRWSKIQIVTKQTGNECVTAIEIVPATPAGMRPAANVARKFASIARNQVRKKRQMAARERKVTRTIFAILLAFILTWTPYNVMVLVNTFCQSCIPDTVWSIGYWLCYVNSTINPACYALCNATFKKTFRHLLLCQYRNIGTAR
Protocol: (§1) The functional receptor assay, Receptor Selection and Amplification Technology (R-SAT), was used (with minor modifications from that previously described U.S. Pat. No. 5,707,798) to screen compounds for efficacy at the 5-HT2A receptor. Briefly, NIH3T3 cells were grown in 96 well tissue culture plates to 70-80% confluence. Cells were transfected for 12-16 hours with plasmid DNAs using superfect (Qiagen Inc.) as per manufacture's protocols. R-SAT's were generally performed with 50 ng/well of receptor and 20 ng/well of Beta-galactosidase plasmid DNA. All receptor and G-protein constructs used were in the pSI mammalian expression vector (Promega Inc) as described in U.S. Pat. No. 5,707,798. The 5HT2A receptor gene was amplified by nested PCR from brain cDNA using the oligodeoxynucleotides based on the published sequence (see Saltzman et. al. Biochem. Biophys. Res. Comm. 181:1469-78 (1991)). Large-scale transfections, cells were transfected for 12-16 hours, then trypsinized and frozen in DMSO. Frozen cells were later thawed, plated at 10,000-40,000 cells per well of a 96 well plate that contained drug. With both methods, cells were then grown in a humidified atmosphere with 5% ambient CO2 for five days. Media was then removed from the plates and marker gene activity was measured by the addition of the beta-galactosidase substrate ONPG (in PBS with 5% NP-40). The resulting colorimetric reaction was measured in a spectrophotometric plate reader (Titertek Inc.)at […]. All data were analyzed using the computer program XLFit (IDBSm). Efficacy is the percent maximal repression compared to repression by a control compound (ritanserin in the case of 5HT2A). pIC50 is the negative of the log(IC50), where IC50 is the calculated concentration in Molar that produces 50% maximal repression.
(§2) The R-SAT assay (described above in example 136) was used to investigate the selectivity of 2-(4-Methoxyphenyl)-N-(4-methylbenzyl)-N-(1-methylpiperidin-4-yl)acetamide hydrochloride.

5-HT7 = target: T3, 5-HT7 (Homo sapiens, UniProt P34969); test: R-SAT broad profiling; settings: read-out: pEC50/pIC50 (converted)
T3 construct: expressed in transfected cells
Protocol: as §1, §2

Histamine 3 = target: T4, Histamine 3 (Homo sapiens, UniProt Q9Y5N1); test: R-SAT broad profiling; settings: read-out: pEC50/pIC50 (converted)
T4 construct: expressed in transfected cells; host or cells: NIH3T3
Protocol: as §1, §2

beta 1 = target: T5, beta 1 (Homo sapiens, UniProt P08588); test: R-SAT broad profiling; settings: read-out: pEC50/pIC50 (converted)
T5 construct: expressed in transfected cells; host or cells: NIH3T3
Protocol: as §1, §2

CCK-A = target: T6, CCK-A (Homo sapiens, UniProt P32238); test: R-SAT broad profiling; settings: agonist; read-out: pEC50/pIC50 (converted)
T6 construct: expressed in transfected cells; host or cells: NIH3T3
Protocol: as §1, §2

endothelinB = target: T7, endothelinB (Homo sapiens, UniProt P24530); test: R-SAT broad profiling; settings: agonist; read-out: pEC50/pIC50 (converted)
T7 construct: expressed in transfected cells; host or cells: NIH3T3
Protocol: as §1, §2

alpha-1A(a/c) = target: T8, alpha-1A(a/c) (Homo sapiens, UniProt P35348); test: R-SAT broad profiling; settings: read-out: pEC50/pIC50 (converted)
T8 construct: expressed in transfected cells; host or cells: NIH3T3
Protocol: as §1, §2

D3 = target: T9, D3 (Homo sapiens, UniProt P35462); test: R-SAT broad profiling; settings: read-out: pEC50/pIC50 (converted)
T9 construct: expressed in transfected cells; host or cells: NIH3T3
Protocol: as §1, §2

T1 sequence (P28223 whole entry): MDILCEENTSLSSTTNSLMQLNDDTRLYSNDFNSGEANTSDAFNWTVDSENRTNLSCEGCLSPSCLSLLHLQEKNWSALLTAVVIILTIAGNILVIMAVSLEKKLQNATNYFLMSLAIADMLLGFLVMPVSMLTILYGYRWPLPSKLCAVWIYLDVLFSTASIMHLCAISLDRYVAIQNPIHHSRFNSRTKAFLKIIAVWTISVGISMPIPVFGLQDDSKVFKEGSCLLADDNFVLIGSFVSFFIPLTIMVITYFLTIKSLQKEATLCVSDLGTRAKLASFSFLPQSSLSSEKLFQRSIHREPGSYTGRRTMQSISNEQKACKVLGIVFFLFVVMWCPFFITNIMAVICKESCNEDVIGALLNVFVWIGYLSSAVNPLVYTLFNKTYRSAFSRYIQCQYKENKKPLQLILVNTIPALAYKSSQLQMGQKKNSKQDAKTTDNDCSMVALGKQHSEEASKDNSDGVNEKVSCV
T9 sequence (P35462 whole entry): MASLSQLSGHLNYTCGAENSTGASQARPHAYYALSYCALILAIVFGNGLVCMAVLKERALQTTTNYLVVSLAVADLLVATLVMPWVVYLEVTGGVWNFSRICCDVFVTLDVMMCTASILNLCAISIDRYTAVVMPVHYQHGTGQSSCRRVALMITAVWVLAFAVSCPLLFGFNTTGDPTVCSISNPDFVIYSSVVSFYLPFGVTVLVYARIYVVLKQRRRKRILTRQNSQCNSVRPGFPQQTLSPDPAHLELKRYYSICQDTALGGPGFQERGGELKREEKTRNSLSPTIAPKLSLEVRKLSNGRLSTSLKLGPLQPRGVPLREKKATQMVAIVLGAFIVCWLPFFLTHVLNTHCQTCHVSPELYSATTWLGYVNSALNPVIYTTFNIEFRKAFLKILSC
T3 sequence (P34969 whole entry, species assumed): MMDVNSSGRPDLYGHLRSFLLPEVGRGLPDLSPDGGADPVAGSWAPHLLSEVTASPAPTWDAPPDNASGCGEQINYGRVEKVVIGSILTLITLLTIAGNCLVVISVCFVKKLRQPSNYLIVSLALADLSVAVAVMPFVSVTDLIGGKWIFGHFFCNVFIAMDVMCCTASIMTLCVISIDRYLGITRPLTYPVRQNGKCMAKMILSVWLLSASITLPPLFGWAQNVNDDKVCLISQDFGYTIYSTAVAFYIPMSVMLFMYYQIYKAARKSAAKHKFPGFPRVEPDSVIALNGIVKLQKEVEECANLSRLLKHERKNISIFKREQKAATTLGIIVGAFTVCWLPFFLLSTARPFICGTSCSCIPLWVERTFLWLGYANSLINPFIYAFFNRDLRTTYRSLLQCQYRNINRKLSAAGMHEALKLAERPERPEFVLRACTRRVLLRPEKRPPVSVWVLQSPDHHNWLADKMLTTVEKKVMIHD
T4 sequence (Q9Y5N1 whole entry): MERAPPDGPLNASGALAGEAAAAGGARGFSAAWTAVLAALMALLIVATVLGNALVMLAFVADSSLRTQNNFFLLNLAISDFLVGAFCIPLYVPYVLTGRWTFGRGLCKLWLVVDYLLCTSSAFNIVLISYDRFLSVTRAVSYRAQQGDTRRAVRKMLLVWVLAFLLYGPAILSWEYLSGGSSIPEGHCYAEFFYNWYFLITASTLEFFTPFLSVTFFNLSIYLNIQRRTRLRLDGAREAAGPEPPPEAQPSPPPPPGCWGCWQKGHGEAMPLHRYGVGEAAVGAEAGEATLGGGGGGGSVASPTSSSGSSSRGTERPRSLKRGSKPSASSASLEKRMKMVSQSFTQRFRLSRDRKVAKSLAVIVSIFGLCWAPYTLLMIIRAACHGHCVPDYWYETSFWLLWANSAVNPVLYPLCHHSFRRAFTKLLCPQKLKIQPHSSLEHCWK
T8 sequence (P35348 whole entry): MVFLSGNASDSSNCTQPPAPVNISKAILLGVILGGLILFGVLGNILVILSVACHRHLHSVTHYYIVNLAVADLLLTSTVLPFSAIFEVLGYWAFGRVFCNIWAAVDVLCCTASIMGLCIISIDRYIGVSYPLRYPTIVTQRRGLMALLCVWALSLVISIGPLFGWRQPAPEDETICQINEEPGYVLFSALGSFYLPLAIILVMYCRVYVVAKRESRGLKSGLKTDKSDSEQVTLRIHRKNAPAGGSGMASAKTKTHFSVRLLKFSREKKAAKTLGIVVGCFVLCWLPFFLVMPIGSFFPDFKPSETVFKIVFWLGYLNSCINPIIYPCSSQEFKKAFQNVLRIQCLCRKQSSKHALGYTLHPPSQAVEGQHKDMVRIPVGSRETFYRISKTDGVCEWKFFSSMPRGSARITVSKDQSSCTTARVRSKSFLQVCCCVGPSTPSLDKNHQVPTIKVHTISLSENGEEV
T5 sequence (P08588 whole entry): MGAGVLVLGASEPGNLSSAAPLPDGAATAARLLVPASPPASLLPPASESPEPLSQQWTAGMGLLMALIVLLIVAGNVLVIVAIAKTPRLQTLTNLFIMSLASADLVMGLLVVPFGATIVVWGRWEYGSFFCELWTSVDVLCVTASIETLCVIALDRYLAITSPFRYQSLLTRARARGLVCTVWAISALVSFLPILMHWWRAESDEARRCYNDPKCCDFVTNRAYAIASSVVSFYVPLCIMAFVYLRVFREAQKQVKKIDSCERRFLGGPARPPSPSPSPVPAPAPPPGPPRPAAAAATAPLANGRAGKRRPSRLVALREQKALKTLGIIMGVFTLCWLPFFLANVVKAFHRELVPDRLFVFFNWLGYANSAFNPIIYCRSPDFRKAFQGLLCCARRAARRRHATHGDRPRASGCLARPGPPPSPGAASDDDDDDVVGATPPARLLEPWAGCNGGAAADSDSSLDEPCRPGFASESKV
T7 sequence (P24530 27-442): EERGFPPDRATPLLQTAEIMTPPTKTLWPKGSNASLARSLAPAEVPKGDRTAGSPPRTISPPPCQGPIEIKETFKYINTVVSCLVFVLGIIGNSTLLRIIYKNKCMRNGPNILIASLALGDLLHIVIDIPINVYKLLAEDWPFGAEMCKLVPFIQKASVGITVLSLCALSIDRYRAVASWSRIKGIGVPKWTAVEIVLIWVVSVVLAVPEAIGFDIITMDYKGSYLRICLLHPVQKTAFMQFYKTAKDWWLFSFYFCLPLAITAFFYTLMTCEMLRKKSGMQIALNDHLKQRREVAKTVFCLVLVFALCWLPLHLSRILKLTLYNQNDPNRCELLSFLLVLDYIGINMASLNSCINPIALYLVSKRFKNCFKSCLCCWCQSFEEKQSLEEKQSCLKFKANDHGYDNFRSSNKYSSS
T6 sequence (P32238 whole entry): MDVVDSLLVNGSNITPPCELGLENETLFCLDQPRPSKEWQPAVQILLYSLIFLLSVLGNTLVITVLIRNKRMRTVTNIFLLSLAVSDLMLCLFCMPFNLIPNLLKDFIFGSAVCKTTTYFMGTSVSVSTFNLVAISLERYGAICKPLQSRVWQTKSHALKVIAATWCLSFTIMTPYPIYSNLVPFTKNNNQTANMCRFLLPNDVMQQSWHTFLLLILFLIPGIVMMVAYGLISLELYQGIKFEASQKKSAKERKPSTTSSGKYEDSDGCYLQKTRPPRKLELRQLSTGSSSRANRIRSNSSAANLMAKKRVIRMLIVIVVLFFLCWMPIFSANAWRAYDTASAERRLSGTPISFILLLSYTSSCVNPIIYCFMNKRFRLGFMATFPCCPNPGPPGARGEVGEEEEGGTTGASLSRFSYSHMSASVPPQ

Compound: CC(C)COc1ccc(CN2C(=O)OC3(CCN(C)CC3)C2Cc2ccc(F)cc2)cc1.Cl (racemic) [Example 69NLS75, 4-(4-Fluorobenzyl)-3-(4-isobutoxybenzyl)-8-methyl-1-oxa-3,8-diazaspiro[4.5]decan-2-one, hydrochloride]
EC50 (5-HT2A receptor; read-out: pEC50 or pIC50 (converted)): > 3.16 µM
5HT2A % inhibition (5-HT2A receptor; compared to ritanserin): 94%
efficacy in brackets (5-HT2A receptor; inverse): 94%

Emax (5-HT2A receptor; 120 h, read-out: Percent Efficacy, compared to ritanserin): 108%
IC50 (5-HT2A receptor; Table 3, read-out: pIC50 (converted)): 0.002 µM
EC50 (5-HT2A receptor; read-out: pEC50/pIC50 (converted)): > 3.16 µM
IC50 (5-HT2A receptor; inverse agonist, read-out: pEC50/pIC50 (converted)): 0.00158 µM
EC50 (m4; agonist): > 3.16 µM
IC50 (m4; antagonist): > 3.16 µM
EC50 (5-HT7; agonist): > 3.16 µM
IC50 (5-HT7; inverse agonist): 0.126 µM
EC50 (Histamine 3; agonist): > 3.16 µM
IC50 (Histamine 3; antagonist): > 3.16 µM
EC50 (beta 1; agonist): > 3.16 µM
IC50 (beta 1; antagonist): > 3.16 µM
EC50 (CCK-A): > 3.16 µM
EC50 (endothelinB): > 3.16 µM
EC50 (alpha-1A(a/c); agonist): > 3.16 µM
IC50 (alpha-1A(a/c); antagonist): > 3.16 µM
EC50 (D3; agonist): > 3.16 µM
IC50 (D3; antagonist): > 3.16 µM
Compound: COc1ccc(CC(=O)N(Cc2ccc(C)cc2)C2CCN(C)CC2)cc1 [Example 50ELH27, 2-(4-Methoxyphenyl)-N-(4-methylbenzyl)-N-(1-methylpiperidin-4-yl)acetamide]
